Source: ChEMBL document CHEMBL3763148, “Synthesis, structure elucidation, DNA-PK and PI3K and anti-cancer activity of 8- and 6-aryl-substituted-1-3-benzoxazines” (Eur J Med Chem, 2016)

Columns and labels:
[1] = Cytotoxicity against human MOLT4 cells assessed as cell growth inhibition at 10 uM after 48 hrs by SRB assay relative to control; format: functional; conditions: MOLT-4, 48 h, read-out: GI
[2] = Cytotoxicity against human SF295 cells assessed as cell growth inhibition at 10 uM after 48 hrs by SRB assay relative to control; format: functional; conditions: SF-295, 48 h, read-out: GI
[3] = Cytotoxicity against human HCT116 cells assessed as cell growth inhibition at 10 uM after 48 hrs by SRB assay relative to control; format: functional; conditions: HCT-116, 48 h, read-out: GI
CCRF-CEM = assay: Cytotoxicity against human CCRF-CEM cells assessed as cell growth inhibition at 10 uM after 48 hrs by SRB assay relative to control; format: functional; conditions: read-out: GI
NCI-H23 = assay: Cytotoxicity against human NCI-H23 cells assessed as cell growth inhibition at 10 uM after 48 hrs by SRB assay relative to control; format: functional; conditions: NCI-H23, 48 h, read-out: GI
786-0 = assay: Cytotoxicity against human 786-0 cells assessed as cell growth inhibition at 10 uM after 48 hrs by SRB assay relative to control; format: functional; conditions: 786-0, 48 h, read-out: GI
T47D = assay: Cytotoxicity against human T47D cells assessed as cell growth inhibition at 10 uM after 48 hrs by SRB assay relative to control; format: functional; conditions: read-out: GI
[4] = biological target: Phosphatidylinositol 4,5-bisphosphate 3-kinase catalytic subunit gamma isoform (Homo sapiens) (UniProt P48736); assay: Inhibition of PI3Kgamma (unknown origin) at 10 uM incubated for 60 mins by kinase-glo luminescence assay
NCI-H226 = assay: Cytotoxicity against human NCI-H226 cells assessed as cell growth inhibition at 10 uM after 48 hrs by SRB assay relative to control; format: functional; conditions: NCI-H226, 48 h, read-out: GI
ACHN = assay: Cytotoxicity against human ACHN cells assessed as cell growth inhibition at 10 uM after 48 hrs by SRB assay relative to control; format: functional; conditions: read-out: GI
Malme-3M = assay: Cytotoxicity against human MALME-3M cells assessed as cell growth inhibition at 10 uM after 48 hrs by SRB assay relative to control; format: functional; conditions: read-out: GI
K562 = assay: Cytotoxicity against human K562 cells assessed as cell growth inhibition at 10 uM after 48 hrs by SRB assay relative to control; format: functional; conditions: K562, 48 h, read-out: GI
[5] = Cytotoxicity against human RPMI8226 cells assessed as cell growth inhibition at 10 uM after 48 hrs by SRB assay relative to control; format: functional; conditions: RPMI-8226, 48 h, read-out: GI
[6] = Cytotoxicity against human COLO205 cells assessed as cell growth inhibition at 10 uM after 48 hrs by SRB assay relative to control; format: functional; conditions: COLO 205, 48 h, read-out: GI
NCI-H322M = assay: Cytotoxicity against human NCI-H322M cells assessed as cell growth inhibition at 10 uM after 48 hrs by SRB assay relative to control; format: functional; conditions: read-out: GI
NCI-H460 = assay: Cytotoxicity against human NCI-H460 cells assessed as cell growth inhibition at 10 uM after 48 hrs by SRB assay relative to control; format: functional; conditions: NCI-H460, 48 h, read-out: GI
[7] = Cytotoxicity against human SNB75 cells assessed as cell growth inhibition at 10 uM after 48 hrs by SRB assay relative to control; format: functional; conditions: SNB-75, 48 h, read-out: GI
[8] = Cytotoxicity against human PC3 cells assessed as cell growth inhibition at 10 uM after 48 hrs by SRB assay relative to control; format: functional; conditions: PC-3, 48 h, read-out: GI
MDA-MB-435 = assay: Cytotoxicity against human MDA-MB-435 cells assessed as cell growth inhibition at 10 uM after 48 hrs by SRB assay relative to control; format: functional; conditions: MDA-MB-435, 48 h, read-out: GI
U-251 = assay: Cytotoxicity against human U251 cells assessed as cell growth inhibition at 10 uM after 48 hrs by SRB assay relative to control; format: functional; conditions: U-251, 48 h, read-out: GI
NCI-H522 = assay: Cytotoxicity against human NCI-H522 cells assessed as cell growth inhibition at 10 uM after 48 hrs by SRB assay relative to control; format: functional; conditions: NCI-H522, 48 h, read-out: GI
MDA-MB-231 = assay: Cytotoxicity against human MDA-MB-231 cells assessed as cell growth inhibition at 10 uM after 48 hrs by SRB assay relative to control; format: functional; conditions: MDA-MB-231, 48 h, read-out: GI
[9] = Cytotoxicity against human HL-60(TB) cells assessed as cell growth inhibition at 10 uM after 48 hrs by SRB assay relative to control; format: functional; conditions: HL-60, 48 h, read-out: GI
KM12 = assay: Cytotoxicity against human KM12 cells assessed as cell growth inhibition at 10 uM after 48 hrs by SRB assay relative to control; format: functional; conditions: KM12, 48 h, read-out: GI
[10] = Cytotoxicity against human OVCAR4 cells assessed as cell growth inhibition at 10 uM after 48 hrs by SRB assay relative to control; format: functional; conditions: OVCAR-4, 48 h, read-out: GI
[11] = Cytotoxicity against human UO31 cells assessed as cell growth inhibition at 10 uM after 48 hrs by SRB assay relative to control; format: functional; conditions: UO-31, 48 h, read-out: GI
[12] = Cytotoxicity against human HCC2998 cells assessed as cell growth inhibition at 10 uM after 48 hrs by SRB assay relative to control; format: functional; conditions: HCC 2998, 48 h, read-out: GI
SN12C = assay: Cytotoxicity against human SN12C cells assessed as cell growth inhibition at 10 uM after 48 hrs by SRB assay relative to control; format: functional; conditions: read-out: GI
[13] = Cytotoxicity against human HOP92 cells assessed as cell growth inhibition at 10 uM after 48 hrs by SRB assay relative to control; format: functional; conditions: HOP-92, 48 h, read-out: GI
A549 = assay: Cytotoxicity against human A549 cells assessed as cell growth inhibition at 10 uM after 48 hrs by SRB assay relative to control; format: functional; conditions: A549, 48 h, read-out: GI
[14] = biological target: DNA-dependent protein kinase catalytic subunit (Homo sapiens, UniProt P78527); assay: Inhibition of human DNA-PK using EPPLSQEAFADLWKK as substrate by HTRF assay
DNA-dependent protein kinase catalytic subunit, sequence (P78527 whole entry): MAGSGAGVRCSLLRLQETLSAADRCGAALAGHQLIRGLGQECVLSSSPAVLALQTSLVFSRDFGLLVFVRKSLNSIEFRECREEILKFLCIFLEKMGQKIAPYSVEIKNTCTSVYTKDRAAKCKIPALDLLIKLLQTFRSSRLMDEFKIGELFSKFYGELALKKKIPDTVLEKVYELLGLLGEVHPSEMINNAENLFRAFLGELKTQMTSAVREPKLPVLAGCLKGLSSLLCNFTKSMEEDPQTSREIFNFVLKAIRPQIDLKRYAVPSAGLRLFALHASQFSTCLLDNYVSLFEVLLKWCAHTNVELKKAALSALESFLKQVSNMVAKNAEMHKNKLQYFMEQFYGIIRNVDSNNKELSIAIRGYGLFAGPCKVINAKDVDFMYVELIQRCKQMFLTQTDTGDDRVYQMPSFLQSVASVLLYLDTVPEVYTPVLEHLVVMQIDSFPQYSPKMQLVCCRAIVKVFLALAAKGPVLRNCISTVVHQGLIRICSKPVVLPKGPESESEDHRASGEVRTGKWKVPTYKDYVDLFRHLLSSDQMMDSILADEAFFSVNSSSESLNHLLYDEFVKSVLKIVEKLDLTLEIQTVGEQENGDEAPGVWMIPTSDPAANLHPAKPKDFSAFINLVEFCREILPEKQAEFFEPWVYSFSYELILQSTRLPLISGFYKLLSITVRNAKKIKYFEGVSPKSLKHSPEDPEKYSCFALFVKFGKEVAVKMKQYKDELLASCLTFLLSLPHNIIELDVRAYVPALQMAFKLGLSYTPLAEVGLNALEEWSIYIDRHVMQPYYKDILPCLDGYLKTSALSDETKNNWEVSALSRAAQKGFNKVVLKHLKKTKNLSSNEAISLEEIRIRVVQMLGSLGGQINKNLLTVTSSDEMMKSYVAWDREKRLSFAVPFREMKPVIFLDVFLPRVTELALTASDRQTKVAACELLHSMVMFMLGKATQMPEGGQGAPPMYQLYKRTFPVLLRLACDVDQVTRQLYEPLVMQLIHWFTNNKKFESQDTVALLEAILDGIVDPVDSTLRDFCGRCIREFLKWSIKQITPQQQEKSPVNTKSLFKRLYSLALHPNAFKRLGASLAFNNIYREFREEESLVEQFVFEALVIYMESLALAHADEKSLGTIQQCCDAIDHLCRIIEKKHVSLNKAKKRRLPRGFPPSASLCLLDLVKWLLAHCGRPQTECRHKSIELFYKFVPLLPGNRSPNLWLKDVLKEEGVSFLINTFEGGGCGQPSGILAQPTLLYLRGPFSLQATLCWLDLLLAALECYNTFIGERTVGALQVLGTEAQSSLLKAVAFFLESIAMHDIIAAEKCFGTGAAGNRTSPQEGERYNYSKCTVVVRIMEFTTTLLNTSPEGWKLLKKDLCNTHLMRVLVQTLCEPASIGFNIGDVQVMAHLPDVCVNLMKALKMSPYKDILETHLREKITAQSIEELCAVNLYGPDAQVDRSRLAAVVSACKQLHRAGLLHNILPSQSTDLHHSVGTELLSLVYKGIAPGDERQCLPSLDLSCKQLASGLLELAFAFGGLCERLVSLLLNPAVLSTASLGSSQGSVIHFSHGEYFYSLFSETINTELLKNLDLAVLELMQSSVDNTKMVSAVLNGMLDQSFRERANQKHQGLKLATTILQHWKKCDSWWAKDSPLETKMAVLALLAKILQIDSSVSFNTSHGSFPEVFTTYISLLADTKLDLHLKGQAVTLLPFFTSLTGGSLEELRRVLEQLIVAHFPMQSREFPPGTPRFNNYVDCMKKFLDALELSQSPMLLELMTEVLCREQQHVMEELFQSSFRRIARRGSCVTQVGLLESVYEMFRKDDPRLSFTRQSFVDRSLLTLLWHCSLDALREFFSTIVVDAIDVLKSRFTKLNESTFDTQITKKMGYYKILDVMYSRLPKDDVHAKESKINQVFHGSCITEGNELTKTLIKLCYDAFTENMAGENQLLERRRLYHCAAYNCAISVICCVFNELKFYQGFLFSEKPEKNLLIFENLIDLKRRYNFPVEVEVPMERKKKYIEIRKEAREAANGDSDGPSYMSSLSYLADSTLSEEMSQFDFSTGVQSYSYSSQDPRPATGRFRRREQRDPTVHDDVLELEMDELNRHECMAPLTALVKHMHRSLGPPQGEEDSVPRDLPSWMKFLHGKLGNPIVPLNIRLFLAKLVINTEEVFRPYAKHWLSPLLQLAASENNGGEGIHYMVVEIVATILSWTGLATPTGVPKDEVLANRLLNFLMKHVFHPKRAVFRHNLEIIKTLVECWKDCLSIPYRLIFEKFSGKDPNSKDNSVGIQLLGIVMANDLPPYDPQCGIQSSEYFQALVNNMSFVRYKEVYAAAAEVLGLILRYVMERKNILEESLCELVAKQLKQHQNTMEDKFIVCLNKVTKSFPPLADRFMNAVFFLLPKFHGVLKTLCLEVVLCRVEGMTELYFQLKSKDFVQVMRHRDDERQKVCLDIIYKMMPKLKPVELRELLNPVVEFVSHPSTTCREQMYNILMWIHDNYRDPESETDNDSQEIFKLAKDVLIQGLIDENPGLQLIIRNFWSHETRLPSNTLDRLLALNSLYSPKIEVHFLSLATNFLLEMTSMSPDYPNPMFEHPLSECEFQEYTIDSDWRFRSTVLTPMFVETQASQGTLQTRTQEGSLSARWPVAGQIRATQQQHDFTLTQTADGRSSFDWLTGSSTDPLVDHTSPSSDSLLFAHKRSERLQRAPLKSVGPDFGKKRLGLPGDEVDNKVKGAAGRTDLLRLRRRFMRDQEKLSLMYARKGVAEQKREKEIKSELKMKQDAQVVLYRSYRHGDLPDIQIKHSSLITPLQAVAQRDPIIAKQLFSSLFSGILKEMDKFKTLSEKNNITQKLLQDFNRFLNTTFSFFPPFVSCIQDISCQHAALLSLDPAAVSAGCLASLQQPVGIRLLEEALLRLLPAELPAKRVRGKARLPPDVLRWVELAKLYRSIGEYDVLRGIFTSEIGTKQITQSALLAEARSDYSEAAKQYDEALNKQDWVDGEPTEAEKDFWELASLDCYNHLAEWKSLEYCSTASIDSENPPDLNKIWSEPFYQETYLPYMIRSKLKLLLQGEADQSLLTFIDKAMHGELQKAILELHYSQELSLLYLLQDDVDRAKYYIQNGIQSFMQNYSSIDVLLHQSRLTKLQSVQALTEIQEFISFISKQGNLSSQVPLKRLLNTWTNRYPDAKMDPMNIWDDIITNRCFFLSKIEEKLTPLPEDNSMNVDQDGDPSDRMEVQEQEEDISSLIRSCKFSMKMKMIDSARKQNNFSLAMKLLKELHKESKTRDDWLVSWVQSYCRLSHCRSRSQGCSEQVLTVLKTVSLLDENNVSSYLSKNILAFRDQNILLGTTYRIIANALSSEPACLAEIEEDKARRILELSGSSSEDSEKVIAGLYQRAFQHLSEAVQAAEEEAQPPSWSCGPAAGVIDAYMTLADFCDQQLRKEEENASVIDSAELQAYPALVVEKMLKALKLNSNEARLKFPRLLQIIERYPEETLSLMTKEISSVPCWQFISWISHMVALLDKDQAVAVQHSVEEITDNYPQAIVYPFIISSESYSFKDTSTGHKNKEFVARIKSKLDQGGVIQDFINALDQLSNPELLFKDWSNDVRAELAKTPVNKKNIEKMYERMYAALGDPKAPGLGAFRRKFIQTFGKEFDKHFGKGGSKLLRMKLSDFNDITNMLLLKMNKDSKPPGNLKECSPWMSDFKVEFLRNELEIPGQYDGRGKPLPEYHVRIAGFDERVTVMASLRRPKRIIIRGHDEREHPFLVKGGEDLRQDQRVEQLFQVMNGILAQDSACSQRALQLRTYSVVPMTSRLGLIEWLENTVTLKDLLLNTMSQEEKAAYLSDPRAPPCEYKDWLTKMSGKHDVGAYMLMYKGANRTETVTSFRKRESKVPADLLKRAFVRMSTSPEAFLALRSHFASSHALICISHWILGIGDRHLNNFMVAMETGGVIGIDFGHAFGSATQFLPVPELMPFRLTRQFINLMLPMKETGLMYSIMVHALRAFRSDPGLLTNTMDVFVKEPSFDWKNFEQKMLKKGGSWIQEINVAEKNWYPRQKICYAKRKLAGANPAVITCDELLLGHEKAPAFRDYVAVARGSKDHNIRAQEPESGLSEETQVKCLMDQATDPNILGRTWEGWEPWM

EKVX = assay: Cytotoxicity against human EKVX cells assessed as cell growth inhibition at 10 uM after 48 hrs by SRB assay relative to control; format: functional; conditions: read-out: GI
HT-29 = assay: Cytotoxicity against human HT-29 cells assessed as cell growth inhibition at 10 uM after 48 hrs by SRB assay relative to control; format: functional; conditions: HT-29, 48 h, read-out: GI
SR = assay: Cytotoxicity against human SR cells assessed as cell growth inhibition at 10 uM after 48 hrs by SRB assay relative to control; format: functional; conditions: read-out: GI
[15] = Cytotoxicity against human SW620 cells assessed as cell growth inhibition at 10 uM after 48 hrs by SRB assay relative to control; format: functional; conditions: SW-620, 48 h, read-out: GI
[16] = Cytotoxicity against human LOXIMVI cells assessed as cell growth inhibition at 10 uM after 48 hrs by SRB assay relative to control; format: functional; conditions: LOX IMVI, read-out: GI

| SMILES | inhibition of growth at 10 µM [1] | inhibition of growth at 10 µM [2] | inhibition of growth at 10 µM [3] | inhibition of growth at 10 µM (CCRF-CEM) | inhibition of growth at 10 µM (NCI-H23) | inhibition of growth at 10 µM (786-0) | inhibition of growth at 10 µM (T47D) | inhibition [4] | inhibition of growth at 10 µM (NCI-H226) | inhibition of growth at 10 µM (ACHN) | inhibition of growth at 10 µM (Malme-3M) | inhibition of growth at 10 µM (K562) | inhibition of growth at 10 µM [5] | inhibition of growth at 10 µM [6] | inhibition of growth at 10 µM (NCI-H322M) | inhibition of growth at 10 µM (NCI-H460) | inhibition of growth at 10 µM [7] | inhibition of growth at 10 µM [8] | inhibition of growth at 10 µM (MDA-MB-435) | inhibition of growth at 10 µM (U-251) | further results |
| --- | --- | --- | --- | --- | --- | --- | --- | --- | --- | --- | --- | --- | --- | --- | --- | --- | --- | --- | --- | --- | --- |
| O=c1nc(N2CCOCC2)oc2c(-c3cccc4c3oc3ccccc34)cccc12 | 4.2% | 0.3% | 6.54% | 11.6% | 11.1% | 21.8% | 15.1% | 32% | 27.7% | 6.98% | 19.7% | 19.4% | 1.19% | -2.34% | 22.3% | -2.97% | 41.5% | 23.2% | 17.1% | 7.66% | inhibition of growth at 10 µM (NCI-H522): 23%; inhibition of growth at 10 µM (MDA-MB-231): 18%; inhibition of growth at 10 µM [9]: 5.92%; inhibition of growth at 10 µM (KM12): 12.7%; inhibition of growth at 10 µM [10]: -1.43%; inhibition of growth at 10 µM [11]: 40.1%; inhibition of growth at 10 µM [12]: -4.36%; inhibition of growth at 10 µM (SN12C): 5.07%; inhibition of growth at 10 µM [13]: 45.6%; inhibition of growth at 10 µM (A549): 12%; IC50 [14]: 0.269 µM; inhibition of growth at 10 µM (EKVX): 18.2%; inhibition of growth at 10 µM (HT-29): 1.56%; inhibition of growth at 10 µM (SR): 34.7%; inhibition of growth at 10 µM [15]: 0.96%; inhibition of growth at 10 µM [16]: 39.2% |
| O=c1nc(N2CCOCC2)oc2c(-c3cccc4ccccc34)cccc12 | 6.92% | 10.8% | 3.34% | 8.52% | 10.7% | 25.6% | 20.3% | 29% | 33.4% | 18.4% | 24.8% | 9.87% | 3.86% | -3.19% | 9.24% | -10% | 53.1% | 40.3% | -1.44% | 14.2% | inhibition of growth at 10 µM (NCI-H522): 18%; inhibition of growth at 10 µM (MDA-MB-231): 6.52%; inhibition of growth at 10 µM [9]: 6.4%; inhibition of growth at 10 µM (KM12): 12.7%; inhibition of growth at 10 µM [10]: 2.95%; inhibition of growth at 10 µM [11]: 46.6%; inhibition of growth at 10 µM [12]: -9.26%; inhibition of growth at 10 µM (SN12C): 17.7%; inhibition of growth at 10 µM [13]: 39.9%; inhibition of growth at 10 µM (A549): 14.4%; IC50 [14]: 20.3 µM; inhibition of growth at 10 µM (EKVX): 18.9%; inhibition of growth at 10 µM (HT-29): 10.4%; inhibition of growth at 10 µM (SR): 27.1%; inhibition of growth at 10 µM [15]: 2.12%; inhibition of growth at 10 µM [16]: 19.9% |
| NC(=O)c1ccc(-c2cccc3c(=O)nc(N4CCOCC4)oc23)cc1 | -2.82% | 6.07% | -3.97% | 1.37% | 7.55% | -0.31% | 12.2% | 10% | 17.4% | -0.43% | 14.6% | -10.4% | -4.18% | -3.93% | 7.01% | -5.06% | 25.5% | 10.1% | -6.9% | 2.31% | inhibition of growth at 10 µM (NCI-H522): 10.4%; inhibition of growth at 10 µM (MDA-MB-231): 8.08%; inhibition of growth at 10 µM [9]: 2.5%; inhibition of growth at 10 µM (KM12): 2.45%; inhibition of growth at 10 µM [10]: 9.54%; inhibition of growth at 10 µM [11]: 10.8%; inhibition of growth at 10 µM [12]: -1.23%; inhibition of growth at 10 µM (SN12C): -3.74%; inhibition of growth at 10 µM (A549): -0.08%; IC50 [14]: 8.81 µM; inhibition of growth at 10 µM (EKVX): 2.66%; inhibition of growth at 10 µM (HT-29): -0.51%; inhibition of growth at 10 µM (SR): 8.01%; inhibition of growth at 10 µM [15]: -3.57%; inhibition of growth at 10 µM [16]: 8.86% |
| O=c1nc(N2CCOCC2)oc2ccc(-c3cccc4c3sc3ccccc34)cc12 | -8.92% | 0.5% | 8.17% | 4.4% | -2.37% | 5.42% | 16.6% | 0% | 11.7% | -1.95% | 4.63% | 10.7% | 3.98% | -2.96% | -0.24% | -1.46% | 10.5% | 39.9% | 1.87% | 6.66% | inhibition of growth at 10 µM (NCI-H522): -2.38%; inhibition of growth at 10 µM (MDA-MB-231): 12.8%; inhibition of growth at 10 µM [9]: -10.4%; inhibition of growth at 10 µM (KM12): 0.12%; inhibition of growth at 10 µM [10]: 2.78%; inhibition of growth at 10 µM [11]: 1.02%; inhibition of growth at 10 µM [12]: -17.8%; inhibition of growth at 10 µM (SN12C): 6.33%; inhibition of growth at 10 µM [13]: 41.6%; inhibition of growth at 10 µM (A549): 5.3%; inhibition of growth at 10 µM (EKVX): 5.25%; inhibition of growth at 10 µM (HT-29): -13.4%; inhibition of growth at 10 µM (SR): 19.5%; inhibition of growth at 10 µM [15]: 5.25%; inhibition of growth at 10 µM [16]: 1.76% |
